Results published in patent US11492347B2 (ENYO PHARMA, priority 2018, dated 2022).

How the values were obtained:
West Nile Virus = assay: Antiviral effect in infected Huh7 cells, plaque assay on VeroE6; assay type: cell-based, WNV stain New-York 99; conditions: Huh-7, MOI of 0,1 pfu per cell, supernatants 48 h post infection
Method: Compound #18 was tested on other viruses. The NEET protein modulators are capable of inhibiting other viruses such as West Nile Virus, Dengue and Zika with a high efficiency.
Assays were performed with the following strains/serotypes: • DENV serotype 2 strain New Guinea C • ZIKV strain MR766 • WNV stain New-York 99
1×10^5 Huh7 cells were infected with DENV, ZIKV, or WNV at a MOI of 0,1 pfu per cell in presence of the test compound. Two hours post-infection the inoculum was removed and cells washed twice with PBS 1×. Fresh medium containing the test compound was added. Supernatants were harvested 48 h post infection, filtered through a 0.45 μm pore membrane and directly used for plaque assays.
VeroE6 cells were infected with serial dilutions of virus supernatants. Two hours post-infection inoculum was replaced by serum-free MEM medium (Gibco, Life Technologies) containing 1.5% carboxymethyl cellulose (Sigma-Aldrich). At different days post infection (day 3 for WNV, day 4 for ZIKV, day 7 for DENV) cells were fixed by addition of formaldehyde to a final concentration of 5%. Cells were stained with crystal violet solution (1% crystal violet, 10% ethanol in H2O) for 30 min at room temperature and extensively rinsed with H2O. Infectious titers were calculated considering the corresponding dilution factor.

[1] = molecular target: T1, CISD1 Gene Product (mitoNEET) (Homo sapiens, UniProt Q9NZ45); assay: Stability of Fe-S cluster binding of purified NEET protein (absorbance 458 nm); assay type: biochemical
T1 sequence (Q9NZ45 33-108 limits assumed): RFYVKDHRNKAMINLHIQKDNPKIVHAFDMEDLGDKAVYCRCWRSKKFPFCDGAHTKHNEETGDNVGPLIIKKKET
Method: (§1) The modulator effect on the NEET proteins encoded by human CISD1, CISD2, and CISD3 genes by the compounds of the invention has been tested and is reported below. Particularly, the biochemical function of the NEET proteins is measured by the stability of Fe—S cluster binding of the purified NEET proteins.
(§2) The Fe—S cluster binding capacity of NEET proteins is known to be coordinated by four amino-acids in a stretch of 16 (three Cysteine and one Histidine). As the lability of the Fe—S cluster of NEET proteins is sensitive to the environment, cluster stability measurements are one of the measures of interactions of NEET proteins with small molecules and compounds. NEET protein/2Fe-2S cluster stability can be assessed by monitoring the decay in absorbance of its characteristic 458-nm peak (characteristic of the oxidized 2Fe-2S cluster) over time. Each NEET protein (mitoNEET, NAF-1 and Miner 2) was tested for its Fe—S binding in the absence or presence of a compound according to the invention (see table 4 below). The rate of cluster release (time in minutes to achieve 50% loss of bound Fe—S cluster) was compared for each NEET protein in the presence of one of the compounds of the invention (in a 1:3 protein:compound molar ratio) relative to each protein alone.
(§3) At pH 6, all the three NEET proteins (mitoNEET, NAF-1 and Miner 2) have a characteristic rate of loss of the bound Fe—S cluster that can be measured by the decrease of absorbance at wavelength 458 nm over time, using a spectrophotometer. Thus, Bis-Tris buffer (100 mM Bis-Tris pH6, 100 mM Nacl) was used at pH 6 to dilute either DMSO (Blank sample: Bis-Tris Buffer pH 6, 66 μM DMSO), DMSO and one of the three NEET proteins (Control sample: Bis-Tris Buffer pH 6, 66 μM DMSO, 20 μM purified NEET protein) or DMSO, one of the three NEET proteins and a compound of the invention (Test sample: Bis-Tris Buffer pH 6, 66 μM DMSO, 20 μM purified NEET protein, 60 μM compound of the invention).
(§4) A reaction mix containing DMSO diluted in the Bis-Tris Buffer with or without a compound of the invention was prepared. The purified NEET protein was the last component added to the reaction mix which was then aliquoted into 4 replicates in 96 wells plates. The absorbance at wavelength 458 nm was taken at 5 minutes intervals at 37° C. with a spectrofluorimeter. The assay run time for CISD2 gene product (NAF-1) was 500 minutes and 180 minutes for both the CISD1gene product (mitoNEET) and the CISD3 gene product (Miner2).
(§5) In addition to time monitoring, residual bound Fe—S cluster to NEET protein was measured at the final point of the spectrometry assay for each Test sample and compared to the Control sample data (in parenthesis table 4). This residual binding is measured by the differential percentage between the absorbance 458 nm at time zero and the absorbance 458 nm at the end of the experiment (i.e. respectively 500 or 180 minutes as described here above), showing the percentage of NEET protein still able to bind a Fe—S cluster.
(§6) Analysis of the absorbance enables the time for which 50% loss of bound Fe—S cluster is reached (i.e. a 50% absorbance decrease at 458 nm) for each Test sample and each Control sample (in parenthesis table 4) to be determined. The data are then compared to determine whether the compound of the invention stabilizes or destabilizes the NEET protein/Fe—S cluster binding.

[2] = molecular target: T2, CISD2 Gene Product (NAF-1) (Homo sapiens, UniProt Q8N5K1); assay: as above; assay type: biochemical; conditions: NAF-1 20 μM, compound 60 μM
T2 sequence (Q8N5K1 57-135 limits assumed): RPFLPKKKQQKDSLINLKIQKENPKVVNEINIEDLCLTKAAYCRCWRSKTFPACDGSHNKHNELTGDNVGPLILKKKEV
Method: as §1, §2, §3, §4, §5, §6

[3] = molecular target: T3, CISD3 Gene Product (Miner2) (Homo sapiens, UniProt P0C7P0); assay: as above; assay type: biochemical
T3 sequence (P0C7P0 15-127): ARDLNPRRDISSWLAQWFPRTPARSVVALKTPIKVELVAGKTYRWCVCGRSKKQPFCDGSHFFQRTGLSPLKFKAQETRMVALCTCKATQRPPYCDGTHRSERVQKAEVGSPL
Method: as §1, §2, §3, §4, §5, §6

[4] = tested on: H1N1 (influenza A/New Caledonia/20/99); assay: microbe, parasite or virus in culture; assay type: cell-based; conditions: H1N1, A549, 48 h
Dengue = assay: microbe, parasite or virus in culture; assay type: cell-based, DENV serotype 2 strain New Guinea C; conditions: Huh-7, 48 h
Zika = assay: Antiviral effect in infected Huh7 cells, plaque assay on VeroE6; assay type: cell-based, ZIKV strain MR766; conditions: Zika virus, Huh-7, MOI of 0,1 pfu per cell, supernatants 48 h post infection
[5] = time to 50% cluster loss changed by more than 25% compared to the Control sample, at the concentrations tested

COc1ccc(C(=O)Nc2sc3c(c2C(=O)O)CCC(C)(C)C3)cc1OC [Compound #18, 2-[(3,4-Dimethoxybenzoyl)amino]-6,6-dimethyl-5,7-dihydro-4H-benzothiophene-3-carboxylic acid]
IC50 (West Nile Virus): 2500 nM | Residual cluster bound at end of experiment (Percentage Absorbance 458 nm at time zero) ([1]; mitoNEET 20 μM, compound 60 μM, pH 6, at 180 minutes, vehicle control 16%): 62% (16%) | Stabiliser or destabiliser of Fe-S cluster binding by CISD1 Gene Product (mitoNEET) [1, 5]: stabilisers | Time (in minutes) to achieve 50% loss of bound cluster (Absorbance 458 nm) ([2]; pH 6, 37° C., run time 500 minutes, vehicle control 310 or 210): 425 (310) minutes | Residual cluster bound at end of experiment (Percentage Absorbance 458 nm at time zero) ([2]; pH 6, at 500 minutes, vehicle control 3%): 42% (3%) | Residual cluster bound at end of experiment (Percentage Absorbance 458 nm at time zero) ([3]; CISD3 gene product 20 μM, compound 60 μM, pH 6, at 180 minutes, vehicle control 11%): 70% (11%) | Stabiliser or destabiliser of Fe-S cluster binding by CISD3 Gene Product (Miner2) [3, 5]: Stabilisers | IC50 [4]: 50 nM | IC50 (Dengue): 5 µM | IC50 (Zika): 3000 nM
